Results from patent publication EP0783507B1, “COMPOUNDS USEFUL AS ANTIPROLIFERATIVE AGENTS AND GARFT INHIBITORS” (AGOURON PHARMACEUTICALS, INC., priority 1994, dated 1996).
Read-outs that look alike come from different tables or passages of the source.

Key:
[1] = test system: L1210; assay: In vitro cell growth inhibition (MTT, modified Mosmann method), L1210; format: cell-based; details: Mus musculus, continuous (72-hour) exposure, mean IC50, read-out: IC50 Cell Culture L1210
Description: (§1) All cultures were maintained at 37°C, 5% air-CO2 in a humidified incubator.
(§2) Stock solutions of the inhibitors were prepared in 10 mM sodium bicarbonate in water and stored in 1 ml aliquots at - 20°C for cell culture experiments. Cell growth inhibition was measured by a modification of the method of Mosmann, J. Immunol. Methods 65 (1983), 55-63.
(§3) Mid-log phase cells of each cell line were diluted to 18,500 cells/ml in fresh RPMI growth medium (Mediatech, Washington, DC) supplemented with dialyzed fetal calf serum (Hyclone Laboratories Inc., Logan, UT) and then aliquotted into columns 2 through 12 of 96-well microtiter plates. Column 1 was filled with the same volume ([…]) of fresh medium, without cells, for use as a blank. The plates were then placed in a 37°C, 5% air-CO2 incubator. After 1 to 4 hours, plates were removed from the incubator followed by addition of Compound 1 at 10 x final concentration, […] in binary dilutions, to columns 12 to 4. […] The extent of metabolized MTT was measured spectrophotometrically at 540 nm on a Molecular Devices Vmax kinetic microplate reader. The concentration of drug required to reduce cell growth by 50% as measured by MTT metabolism was determined by interpolation between the O.D. (minus blank) immediately above and below 50% of control O.D. (minus blank).

[2] = target: catalytic domain of the human GARFT (Homo sapiens, UniProt P22102); assay: biochemical
catalytic domain of the human GARFT, sequence (P22102 810-1010 limits assumed): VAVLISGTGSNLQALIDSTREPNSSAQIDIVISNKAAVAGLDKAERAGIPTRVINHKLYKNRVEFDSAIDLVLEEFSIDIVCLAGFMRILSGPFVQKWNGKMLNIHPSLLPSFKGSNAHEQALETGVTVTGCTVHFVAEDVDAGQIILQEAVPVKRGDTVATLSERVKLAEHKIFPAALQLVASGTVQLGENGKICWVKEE
Description: The GAR-transformylase (GARFT) assay method of Young et al., Biochemistry 23 (1984), 3979-3986, was modified and used as described below. Reactions mixtures contained the catalytic domain of the human GARFT, 0-250 nM of Compound 1, 20 µM glycinamide ribonucleotide (GAR), 10 or 20 µM N^10-formyl-5,8-dideazafolate (FDDF), 50 mM HEPES-KOH, pH 7.5, and 50 mM KCl. The reaction was initiated with the addition of enzyme to a final concentration of 11 nM, followed by monitoring of the increase in absorbance at 294 nm at 20°C (e294 = 18.9 mM^-1 cm^-1).
The GARFT inhibition constant (Ki) was determined from the dependence of the steady-state catalytic rate on inhibitor and substrate concentration. […] The Michaelis constant for FDDF, Km, was determined independently by the dependence of the catalytic rate on FDDF concentration. Data for both the Km and Ki determinations were fitted by nonlinear methods to the Michaelis equation, or the Michaelis equation for competitive inhibition, as appropriate. Data resulting from tight-binding inhibition was analyzed, and Ki determined, by fitting the data to the tight-binding equation of Morrison, Biochem Biophys Acta 185 (1969), 269-286, by nonlinear methods.

[3] = test system: C3H/BA mammary adenocarcinoma; format: in vivo; details: tumor mass vs control on day 14
Description: (§4) On day zero, 2 mm^2 trocar fragments of C3H/BA mammary adenocarcinoma were implanted subcutaneously in the axillary region into groups of six C3H/He female mice. Starting on day 1, the test compound was administered intraperitoneally in 40% Encapsin given once daily for nine days. Control animals received identical treatment without test compound. The percentage of inhibition was calculated by comparing the mass of the control tumors (receiving diluent only) on day 14 to those of animals receiving test compound.

[4] = test system: CCRF-CEM; assay: In vitro cell growth inhibition (MTT, modified Mosmann method), CCRF-CEM; format: cell-based; details: Homo sapiens, continuous (72-hour) exposure per table title, Table 2 gives 5 days incubation, mean IC50, read-out: IC50 Cell CultureCCRF-CEM
Description: as §1, §2, §3

[5] = test system: 6C3HED lymphosarcoma; format: in vivo; details: tumor mass vs control on day 11
Description: as §4, with “6C3HED lymphosarcoma” for “C3H/BA mammary adenocarcinoma”, “percentage” for “percentage of”, “inhibition given in Table 4 below” for “inhibition”, “11” for “14”

## Nc1nc2c(c(=O)[nH]1)SC(CCc1ccc(C(=O)N[C@@H](CCC(=O)O)C(=O)O)s1)CN2 (stereo partly drawn) [Compound 1, 4-[2-(2-Amino-4-oxo-4,6,7,8-tetrahydro-3H-pyrimido[5,4-6][1,4]thiazin-6-yl)-ethyl]-2,5-thienoylamino-L-glutamic acid]
[1]
  IC50: 16 nM
[2]
  Ki: 4.5 nM
[3]; 5 mg/kg intraperitoneally in 40% Encapsin once daily for nine days
  % Inhibition: 16%
[3]; 10 mg/kg intraperitoneally in 40% Encapsin once daily for nine days
  % Inhibition: 84%
[3]; 20 mg/kg intraperitoneally in 40% Encapsin once daily for nine days
  % Inhibition: 100%
[4]
  IC50: 4.3 nM
[5]; 12.5 mg/kg intraperitoneally in 40% Encapsin once daily for nine days
  % Inhibition: 100%
[5]; 25 mg/kg intraperitoneally in 40% Encapsin once daily for nine days
  % Inhibition: 100%
[5]; 50 mg/kg intraperitoneally in 40% Encapsin once daily for nine days
  % Inhibition: toxic
